Reference: US20100298141A1, “SUBSTITUTED PYRIDINE N-OXIDE HERBICIDES” (E. I. DU PONT DE NEMOURS AND COMPANY, priority 2007, published 2010)

Tests used:
bermudagrass = experiment: Test C pre-/postemergence test; format: in vivo, Cynodon dactylon
Outline: (§1)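 Test chemicals were formulated with surfactant in a non-phytotoxic solvent and sprayed both on freshly planted seeds (preemergence) and on 1- to 4-leaf plants of 2–18 cm (postemergence). Flooded-paddy pots received compound directly into 3 cm of standing water, maintained for the test.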

giant foxtail = experiment: Test A pre-/postemergence greenhouse test; format: in vivo, Setaria faberi; conditions: for Plant response rating, Foxtail, Giant: 0 to 100 scale where 0 is no effect and 100 is complete control; for Foxtail, Giant plant response rating: 0 to 100 scale
Outline: (§2)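 Visual injury ratings against untreated controls, taken roughly ten days after treatment in greenhouse. Plants were sprayed postemergence at one- to two-leaf stage (2–10 cm tall); at the same time, seeded loam/sand soil received a directed preemergence spray. Formulation: non-phytotoxic solvent mixture with surfactant.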

crabgrass [1] = experiment: Test C pre-/postemergence test; format: in vivo, Digitaria sanguinalis
Outline: as §1

barnyardgrass [2] = experiment: Test C flooded paddy test; format: in vivo, Echinochloa crus-galli; conditions: Flood
Outline: (§3)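 Flooded 3 cm over soil; compound into paddy water; depth kept constant. Greenhouse 13–15 d.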

morningglory = experiment: Test A pre-/postemergence greenhouse test; format: in vivo, Ipomoea spp.; conditions: for Plant response rating, Morningglory: 0 to 100 scale where 0 is no effect and 100 is complete control; for Morningglory plant response rating: 0 to 100 scale
Outline: as §2

Surinam grass = experiment: Test C pre-/postemergence test; format: in vivo, Brachiaria decumbens; conditions: for Surinam Grass plant response rating: preemergence, scale 0 (no effect) to 100 (complete control)
Outline: as §1

soybean = experiment: Test C pre-/postemergence test; format: in vivo, Glycine max
Outline: as §1

Goosegrass = experiment: Test C pre-/postemergence test; format: in vivo, Eleusin indica
Outline: as §1

Italian ryegrass = experiment: Test C pre-/postemergence test; format: in vivo, Lolium multiflorum
Outline: as §1

lambsquarters = experiment: Test C pre-/postemergence test; format: in vivo, Chenopodium album
Outline: as §1

cocklebur = experiment: Test C pre-/postemergence test; format: in vivo, Xanthium strumarium
Outline: as §1

crabgrass [3] = experiment: Test A pre-/postemergence greenhouse test; format: in vivo, Digitaria sanguinalis; conditions: for Plant response rating, Crabgrass, Large: 0 to 100 scale where 0 is no effect and 100 is complete control; for Crabgrass, Large plant response rating: 0 to 100 scale
Outline: as §2

kochia = experiment: Test C pre-/postemergence test; format: in vivo, Kochia scoparia
Outline: as §1

pigweed = experiment: Test C pre-/postemergence test; format: in vivo, Amaranthus retroflexus
Outline: as §1

umbrella sedge = experiment: Test C flooded paddy test; format: in vivo, Cyperus difformis; conditions: Flood
Outline: as §3

[4] = test system: common (oilseed) sunflower; experiment: Test C pre-/postemergence test; format: in vivo, Helianthus annuus
Outline: as §1

barnyardgrass [5] = experiment: Test A pre-/postemergence greenhouse test; format: in vivo, Echinochloa crus-galli; conditions: for Plant response rating, Barnyardgrass: 0 to 100 scale where 0 is no effect and 100 is complete control; for Barnyardgrass plant response rating: 0 to 100 scale
Outline: as §2

[6] = 125 g ai/ha, preemergence, scale 0 (no effect) to 100 (complete control)
[7] = Preemergence, 31 g ai/ha, scale 0 to 100 (0 no effect, 100 complete control)
[8] = preemergence, 250 g ai/ha, scale 0 (no effect) to 100 (complete control)
[9] = Postemergence, 500 g ai/ha, 0 is no effect, 100 is complete control
[10] = Preemergence, 125 g ai/ha, 0 no effect, 100 complete control
[11] = 62 g ai/ha, Preemergence, scale 0 to 100
[12] = 62 g ai/ha, scale 0 to 100 (0 no effect, 100 complete control)
[13] = 250 g ai/ha, scale 0 to 100, 0 no effect, 100 complete control, 13 to 15 days

Cn1nc(C(F)(F)F)c(CS(=O)(=O)c2ccc(Cl)c[n+]2[O-])c1OCC(F)(F)F [Compound 73]
Bermudagrass plant response rating (bermudagrass; 62 g ai/ha, Preemergence, scale 0 to 100 (0 no effect, 100 complete control)): 100
Bermudagrass plant response rating (bermudagrass; [6]): 100
Plant response rating, Bermudagrass (bermudagrass; [7]): 80
Bermudagrass plant response rating (bermudagrass; [8]): 100
Plant response rating, Foxtail, Giant (giant foxtail; Postemergence, 125 g ai/ha): 70
Foxtail, Giant plant response rating (giant foxtail; [9]): 90
Foxtail, Giant plant response rating (giant foxtail; [10]): 90
Plant response rating, Foxtail, Giant (giant foxtail; Preemergence, 500 g ai/ha): 100
Crabgrass, Large plant response rating (crabgrass [1]; [11]): 85
Crabgrass, Large plant response rating (crabgrass [1]; [6]): 85
Plant response rating, Crabgrass, Large (crabgrass [1]; [7]): 85
Crabgrass, Large plant response rating (crabgrass [1]; [8]): 95
Plant response rating, Barnyardgrass (barnyardgrass [2]; [12]): 0
Plant response rating, Barnyardgrass (barnyardgrass [2]; [13]): 65
Plant response rating, Morningglory (morningglory; Postemergence, 125 g ai/ha): 0
Morningglory plant response rating (morningglory; [9]): 20
Morningglory plant response rating (morningglory; [10]): 20
Plant response rating, Morningglory (morningglory; Preemergence, 500 g ai/ha): 40
Surinam Grass plant response rating (Surinam grass; 125 g ai/ha): 80
Plant response rating, Surinam Grass (Surinam grass; [7]): 40
Surinam Grass plant response rating (Surinam grass; 250 g ai/ha): 80
Soybean plant response rating (soybean; [11]): 0
Plant response rating, Soybean (soybean; [7]): 0
Soybean plant response rating (soybean; [8]): 70
Goosegrass plant response rating (Goosegrass; [11]): 100
Goosegrass plant response rating (Goosegrass; [6]): 100
Plant response rating, Goosegrass (Goosegrass; [7]): 98
Goosegrass plant response rating (Goosegrass; [8]): 100
Ryegrass, Italian plant response rating (Italian ryegrass; [11]): 10
Ryegrass, Italian plant response rating (Italian ryegrass; [6]): 60
Plant response rating, Ryegrass, Italian (Italian ryegrass; [7]): 0
Ryegrass, Italian plant response rating (Italian ryegrass; [8]): 98
Lambsquarters plant response rating (lambsquarters; [11]): 100
Lambsquarters plant response rating (lambsquarters; [6]): 100
Plant response rating, Lambsquarters (lambsquarters; [7]): 50
Lambsquarters plant response rating (lambsquarters; [8]): 100
Cocklebur plant response rating (cocklebur; [11]): 0
Cocklebur plant response rating (cocklebur; [6]): 0
Plant response rating, Cocklebur (cocklebur; [7]): 0
Cocklebur plant response rating (cocklebur; [8]): 0
Plant response rating, Crabgrass, Large (crabgrass [3]; Postemergence, 125 g ai/ha): 60
Crabgrass, Large plant response rating (crabgrass [3]; [9]): 80
Crabgrass, Large plant response rating (crabgrass [3]; [10]): 70
Plant response rating, Crabgrass, Large (crabgrass [3]; Preemergence, 500 g ai/ha): 90
Kochia plant response rating (kochia; [11]): 100
Kochia plant response rating (kochia; [6]): 100
Plant response rating, Kochia (kochia; [7]): 60
Kochia plant response rating (kochia; [8]): 100
Pigweed plant response rating (pigweed; [11]): 100
Pigweed plant response rating (pigweed; [6]): 100
Plant response rating, Pigweed (pigweed; [7]): 90
Pigweed plant response rating (pigweed; [8]): 100
Plant response rating, Sedge, Umbrella (umbrella sedge; [12]): 0
Plant response rating, Sedge, Umbrella (umbrella sedge; [13]): 65
Sunflower plant response rating [4, 11]: 0
Sunflower plant response rating [4, 6]: 35
Plant response rating, Sunflower [4, 7]: 0
Sunflower plant response rating [4, 8]: 40
Plant response rating, Barnyardgrass (barnyardgrass [5]; Postemergence, 125 g ai/ha): 70
Barnyardgrass plant response rating (barnyardgrass [5]; [9]): 80
Barnyardgrass plant response rating (barnyardgrass [5]; [10]): 90
Plant response rating, Barnyardgrass (barnyardgrass [5]; Preemergence, 500 g ai/ha): 90
